From BigSolDB 2.1

CCOC(=O)c1c(CSc2ccccc2)n(C)c2cc(Br)c(O)c(CN(C)C)c12.Cl.O
solubility (mole fraction)
Settings	293.15 K	298.15 K	303.15 K	308.15 K	313.15 K	318.15 K	323.15 K	328.15 K	333.15 K
in DMF	0.0228	0.0244	0.0276	0.0317	0.0351	0.0396	0.0457	0.0513	0.0596
in NMP	0.0325	0.0352	0.0375	0.0417	0.0462	0.0503	0.0554	0.0635	0.0722
in THF	0.000382	0.000492	0.000678	0.000947	0.00125	0.00163	0.00211	0.00265	–
in acetone	0.000193	0.000252	0.000364	0.000524	0.000696	0.000937	0.00128	–	–
in ethanol	0.00973	0.0116	0.0132	0.0154	0.018	0.0234	0.0294	0.0366	0.0436
in ethyl acetate	7.86e-05	0.000101	0.000125	0.000158	0.0002	0.000245	0.000295	0.000354	0.000426
in isopropanol	0.00114	0.00161	0.0021	0.0029	0.00356	0.00476	0.00602	0.00749	0.00955
in methanol	0.0405	0.0442	0.0494	0.0541	0.0622	0.0715	0.0786	0.0903	–
in n-butanol	0.00344	0.00441	0.00545	0.00709	0.00865	0.0105	0.0127	0.0159	0.0203
in n-propanol	0.00522	0.00628	0.00728	0.00878	0.0112	0.0141	0.0171	0.0214	0.027
in water	5.82e-05	7.34e-05	8.66e-05	0.000108	0.000126	0.000156	0.000204	0.000251	0.000309
